The values below come from US20240327423A1, “A SERIES OF PYRROLE DERIVATIVES AND THEIR PREPARATION METHOD AND THERAPEUTIC USE” (SHENZHEN SUNGENING BIO-MEDICAL CO., LTD, priority 2020, published 2024).

SMILES strings stand for the structures. ≈ marks a conversion by molar mass, not a printed value. Like-named read-outs stand apart in the source and are kept apart here.

The test system of data set [1] is Aspergillus fumigatus (ATCC-204305). Briefly: Measurement of minimum inhibitory concentration (MIC), ATCC 204305. It counts as cell-based. As to conditions: Aspergillus fumigatus ATCC 204305, 35° C., 48 hours. The method, then:
New streaks are made with glycerol stock solution of the strains of Aspergillus [NT] MYA-4609/AF 293/CBS 101355) on Sabouraud's dextrose agar (SDA), incubate at 35° C. and a humidity of 40-70% for 72 hours. Other strains are processed as the same as AF293. RPMI1640: one packet of RPMI1640 powder is dissolved in 1 L purified water and mixed well, add 0.165M MOPS, adjust the pH to 7.0, sterilize by filtration with 0.22 um membrane, and store at 4° C. for no more than 3 months. Physiological saline: weigh 9 g of sodium chloride powder and dissolve in 1 L of purified water, and mixed well. […] Dissolve the test compound and stock solution of one control compound with DMSO and obtain solutions at a concentration of 12.8 mg/mL The maximum concentration of each compound is 0.8 mg/mL (e.g., 150 μL of dimethyl sulfoxide+10 uL of 12.8 mg/mL compound/control). […] Repeat the above steps up to column 11 to give 2× serial dilutions. 2 μL of the above 2× serial dilutions are injected into each hole of the corresponding test plate using a multichannel pipette. Drop 5 ml of saline on the Aspergillus fumigatus SDA plate. The spores were carefully wiped off from the surface of the plate with an L-shaped coating rod. Then the suspension is transferred into a sterile tube. After shaking, let the tube stand for 5 to 10 minutes. Count the number of spores in the upper suspension with a hemocytometer and check the purity. Adjust the inoculum concentration to 0.2-2.5×10^4 spores/mL. Inject 198 μL of diluted inoculum into each holes of the corresponding test plate using a multichannel pipette. Incubate at 35° C. for 48 hours. […] To facilitate scoring of the presence or absence of growth on the wall, a magnifying glass is used. The tested 96-well microplates were photographed and the optical density at 530 nm is read with an enzyme marker (Tecan Spark).

Data set [2] is described as follows: Pharmacokinetic test in SD rats, single oral administration. It counts as in vivo. The settings on record: single oral administration 10 mg/kg, test compound mixed with F901318, plasma; for half-life: read-out: T½ (converted). As to the method: Pharmacokinetic study is performed on SD rats receiving single oral administration of each test compound mixed with F901318 (10 mg/kg, 3 rats per group). Test compounds and F901318 are dissolved with […]+10% solutol+85% saline, vortexed for 1-2 mins and ultra-sonicated for 5-10 mins to form a colorless clear drug solution. The animals are fasted overnight before oral administration, and resumed feeding 4 hours after administration. After oral administration, pharmacokinetic samples are collected from orbital blood of SD rats at 0.083 h, 0.25 h, 0.5 h, 1 h, 2 h, 4 h, 6 h, 8 h, and 24 h, and three whole blood samples are collected at each time point in a volume of 0.2-0.3 mL. Blood samples are placed on ice immediately after collected, and the plasma is separated by centrifugation within 15 min (centrifugation conditions: 8000 rpm, 1 min, and at room temperature).
The collected plasma is stored at −20° C. prior to analysis. Transfer 20 μL of plasma sample into an 0.5 mL EP tube, add 200 μL of working internal standard solution (blank group is without internal standard, using the same volume of solvent instead), vortex and mix for 3 min centrifuge at 13500 rpm for 10 min, take 100 μL of supernatant and analyze with LC-MS/MS.

Data set [3] relates to Aspergillus fumigatus (ATCC MYA-4609/AF293/CBS 101355). Briefly: Measurement of minimum inhibitory concentration (MIC), AF293. The settings on record: CBS101355; Aspergillus fumigatus AF293, 35° C., 48 hours, RPMI1640; read-out: AF293: MIC. The format is cell-based. As to the method:
New streaks are made with glycerol stock solution of the strains of Aspergillus fumigatus (ATCC MYA-4609/AF 293/CBS 101355) on Sabouraud's dextrose agar (SDA), incubate at 35° C. and a humidity of 40-70% for 72 hours. Other strains are processed as the same as AF293.
RPMI1640: one packet of RPMI1640 powder is dissolved in 1 L purified water and mixed well, add 0.165M MOPS, adjust the pH to 7.0, sterilize by filtration with 0.22 um membrane, and store at 4° C. for no more than 3 months.
Physiological saline: weigh 9 g of sodium chloride powder and dissolve in 1 L of purified water, and mixed well. Sterilize at 121° C. for 30 min, store at room temperature (RT) for no more than 1 week.
Dissolve the test compound and stock solution of one control compound with DMSO and obtain solutions at a concentration of 12.8 mg/mL
The maximum concentration of each compound is 0.8 mg/mL (e.g., 150 μL of dimethyl sulfoxide+10 uL of 12.8 mg/mL compound/control). Column 1 is filled with 40 μL of compound and columns 2 to 11 with 20 μL of dimethyl sulfoxide. Transfer 20 μL of compound from column 1 to column 2 to dilute the concentration. Repeat the above steps up to column 11 to give 2× serial dilutions.
2 μL of the above 2× serial dilutions are injected into each hole of the corresponding test plate using a multichannel pipette.
Drop 5 ml of saline on the Aspergillus fumigatus SDA plate. The spores were carefully wiped off from the surface of the plate with an L-shaped coating rod. Then the suspension is transferred into a sterile tube. After shaking, let the tube stand for 5 to 10 minutes. Count the number of spores in the upper suspension with a hemocytometer and check the purity. Adjust the inoculum concentration to 0.2-2.5×10^4 spores/mL.
Inject 198 μL of diluted inoculum into each holes of the corresponding test plate using a multichannel pipette.
Incubate at 35° C. for 48 hours.
To facilitate scoring of the presence or absence of growth on the wall, a magnifying glass is used. The tested 96-well microplates were photographed and the optical density at 530 nm is read with an enzyme marker (Tecan Spark).

Data set [4] concerns Aspergillus fumigatus ATCCMYA-4690 (AF293). Briefly: Survival rate experiment II of mouse bloodstream infection model with Aspergillus fumigatus. The format is in vivo. The settings on record: immunosuppressed male CD-1 mouse. As to the method:
Test Case 6: Survival Rate Experiment II of Mouse Bloodstream Infection Model with Aspergillus fumigatus • Animal for experiment: male CD-1 mouse, 6-8 weeks old, 10 animals per group. • Induction of immunosuppression: the day of infection is defined as day 0, and mouses are injected intraperitoneally with corresponding doses of cyclophosphamide on day −4 (150 mg/kg), day −1 (100 mg/kg), and day 2 (100 mg/kg), respectively. • Microbial pathogen: Aspergillus fumigatus ATCCMYA-4690 (AF293). • Collection conditions of inoculum: culture on SDA culture plates, incubate at 25° C. for at least 7 days, collect with PBS+0.1% Tween 20, and count microscopically; • Inoculation level, route and volume: 3.90E+05 CFU/mouse, tail vein injection, injection volume of 100 μL/mouse; • Treatment: Treatment is started 24 hours after infection, and test compounds are dissolved in PEG400 (0.3 mg/mL), […] The administrated mouses are observed for 8 hours.

A short description of data set [5]: Liver microsomal stability test, mouse. The format is in vitro ADME. The settings on record: Mouse liver microsomes. As to the method:
(§1) • 1: Add 10 μL of working solutions of test product or reference product and 80 μL of microsomal working solution (liver microsomal protein concentration of 0.5 mg/mL) to wells of TO, T5, T10, T20, T30, T60, and NCF60, and only microsomal working solution is added to the Blank60 wells. Then the samples of Blank60, T10, T20, T30 and T60, except for TO and NCF60, are placed in a water bath set at 37° C. and incubate for approximately 10 mins; • 2: Add 300 μL of termination solution (acetonitrile solution containing 200 ng/mL tolbutamide and 200 ng/mL labetalol) to Sample TO, followed by 10 ul of NADPH regeneration system working solution; • 3: After incubation of Blank60, T5, T10, T20, T30 and T60 on incubation plates, add 10 μL of NADPH regeneration system working solution to each sample well to start the reaction, and 10 uL of 100 mM potassium phosphate buffer is add to the NCF60 sample wells; • 4: After incubation for appropriate times (e.g., 5, 10, 20, 30 and 60 mins), 300 μL of termination solution is add to each sample well of test product and reference product on Blank60, T5, T10, T20, T30, T60 and NCF60 plates, respectively, to terminate the reaction. • 5: All sample plates are shaken well and centrifuged at 4000 rpm for 20 min, take 100 μL of the supernatant of the test product or reference product, dilute in 300 μL of pure water for LC-MS/MS analysis, respectively. • 6: Data analysis, T½ and CLint(mic) (μL/min/mg) values are calculated based on the first-order elimination kinetics, and the equations of first-order elimination kinetics are: […]
For orientation: Liver microsomes are vesicles of endoplasmic reticulum, rich in cytochrome P450 enzymes.

A short description of data set [6]: Liver microsomal stability test, human. The format is in vitro ADME. The settings on record: Human liver microsomes. The method, then:
as §1

Where [7] appears, read: SD, rat, plasma, po, 10 mg/kg, read-out: AUC.
Where [8] appears, read: SD, rat, plasma, po, 10 mg/kg, read-out: Cmax.
Where [9] appears, read: SD, rat, plasma, po, 10 mg/kg, read-out: Tmax.
Where [10] appears, read: 0.5 mg/mL protein, 37° C., NADPH.

In the case of `Cc1cc(-c2ccccc2F)c(C(=O)C(=O)Nc2ccc3c(c2)OC[C@H]2CN(c4ncc(F)cn4)CCN32)n1C` [Example 35, (R)-2-(3-(2-fluorophenyl)-1,5-dimethyl-1H-pyrrol-2-yl)-N-(3-(5-fluoropyrimidin-2-yl)-1,2,3,4,4a, 5-hexahydrobenzo [b]pyrazino[1,2-d] [1,4]oxazin-8-yl)-2-oxoacetamide], the minimum inhibitory concentration (MIC) in data set [1] (ATCC204305) came out at 0.016 µg/mL (≈ 0.0294 µM); in data set [3], 0.008 µg/mL (≈ 0.0147 µM). The AUC in data set [2] (setting [7]) amounted to 12800 ng·h/mL. In addition, the Cmax in data set [2] (setting [8]) amounted to 1520 ng/mL. The Tmax in data set [2] (setting [9]) was 50 min. The half-life in data set [2] (SD, rat, plasma, po, 10 mg/kg) is 297 min.
With `Cc1cc(-c2ccccc2F)c(C(=O)C(=O)Nc2ccc3c(c2)COCC2CN(c4ncc(F)cn4)CCN32)n1C` (centres unmarked) [Example 39, 2-(3-(2-fluorophenyl)-1,5-dimethyl-1H-pyrrol-2-yl)-N-(3-(5-fluoropyrimidin-2-yl)-1,2,3,4,4a,5-hexahydro-7H-benzo[e]pyrazine[2,1-c] [1,4]oxazolin-9-yl)-2-oxoacetamide], the “ATCC 204305: MIC” value in data set [1] was 0.03 µg/mL.
Still for that read-out and setting: under `Cc1cc(-c2ccccc2F)c(C(=O)C(=O)Nc2cnc3c(c2)OCC2CN(c4ncc(F)cn4)CCN32)n1C` (centres unmarked) [Example 40] stands 0.06 µg/mL.
As for `Cc1cc(-c2ccccc2F)c(C(=O)C(=O)Nc2ccc3c(c2)C[C@H]2CN(c4ncc(F)cn4)CCN32)n1C` [Example 38, (S)-2-(3-(2-fluorophenyl)-1,5-dimethyl-1H-pyrrol-2-yl)-N-(2-(5-fluoropyrimidin-2-yl)-1,2,3,4,10,10a-hexahydropyrazino[1,2-a]indol-8-yl)-2-oxyacetamide], the “day 7 survival rate” value in data set [4] (3 mg/kg (bid) orally for 6 days, started 24 hours after infection) is reported as 50%. For the same compound, in data set [4] (oral, bid), the “survival time of mouses” value was “prolong the survival time”. Also, the “ATCC 204305: MIC” value in data set [1] is 0.008 µg/mL. In data set [2], the AUC was determined as 41566.714 ng·h/mL, the Cmax came to 3053.085 ng/mL, the Tmax worked out at 60 min and the T½ turned out to be 672.12 min. In addition, in data set [5] (setting [10]), the CLint was 85.1 mL/min/kg and the T1/2 was determined as 29.3 min. Besides, in data set [5], the “Remaining, (T = 60 min)” value was 24.5%. Moreover, in data set [6] (setting [10]), the CLint was determined as 40.7 mL/min/kg and the T1/2 came to 30.7 min. The “Remaining, (T = 60 min)” value in data set [6] stood at 25.3%.
As for `Cc1cc(-c2ccccc2)c(C(=O)C(=O)Nc2ccc3c(c2)CC2CN(c4ncc(F)cn4)CCN32)n1C` (centres unmarked) [Example 1, 2-(1,5-dimethyl-3-phenyl-1H-pyrrol-2-yl)-N-(2-(5-fluoropyrimidin-2-yl)-1,2,3,4,10,10a-hexahydropyrazino[1,2-a]indol-8-yl)-2-oxoacetamide], the AUC in data set [2] (setting [7]) came to 48300 ng·h/mL. Besides, the Cmax in data set [2] (setting [8]) came out at 3860 ng/mL. Also, in data set [2] (setting [9]), the Tmax stood at 140 min. The half-life is 389 min in data set [2] (SD, rat, plasma, po, 10 mg/kg); 38.3 min in data set [5] (setting [10]); 38.3 min in data set [6] (setting [10]). For the same compound, the MIC in data set [3] worked out at 0.03 µg/mL (≈ 0.0588 µM). Further, the CLint scaled turned out to be 65.2 mL/min/kg in data set [5] (setting [10]) and 32.6 mL/min/kg in data set [6] (setting [10]). Also, the “Remaining, (T = 60 min)” value worked out at 34.4% in data set [5] and 35.7% in data set [6].

In general, MIC refers to the least concentration at which growth counts as inhibited. As a reminder, the AUC is concentration integrated over time. As a reminder, the Cmax is the highest concentration seen after dosing. One may read the Tmax as the time from dosing to the highest level. Broadly, the CLint scaled is a measure of how fast metabolising enzymes remove a compound, apart from limits set by blood flow.
